# Where two headings read alike, the source gives them in different places.
# Key:
# [1] = pH upon addition of test substance to 0.1 M HCl solution (pH 1.2), simulated gastric fluid, pH meter; format: physicochemical
# Description: Test substances were dissolved in various volumes of 0.1 M HCl solution (pH 1.2) at concentrations of 1, 2, 4, 10, 20, 50, 100 and 150 mg/ml. The solution pH was determined using an MP-103 pH-meter (MRC, Israel) equipped with ELC-10-00 electrode (MRC, Israel) or with a thin electrode HI1083 (HANNA instruments Inc.), shortly after dissolution and up to 26 hours later in order to ensure that the pH remained stable. The highest pH value obtained during the experimental time period was recorded in order to compare the acid-neutralizing capacity of each substance.
# SNAC and the basic polymers sodium alginate, sodium carboxymethylcellulose in non-crosslinked (Na-CMC) and crosslinked (croscarmellose sodium, CCS) forms, and sodium starch glycolate (SSG) were dissolved in various volumes of 0.1 M HCl solution (pH 1.2) at concentrations of 1, 2, 4, 10, 20, 50, 100 and 150 mg/ml, and the solution pH was determined using an MP-103 pH-meter (MRC, Israel) equipped with ELC-10-00 electrode (MRC, Israel), as described in the Materials and Methods section hereinabove.
# In order to obtain a beneficial rise in pH with a reduced loss of the active form of the absorption enhancer, the effect of various concentrations of different polymers containing carboxylate groups (sodium alginate, sodium starch glycolate, sodium carboxymethylcellulose, and croscarmellose sodium) on pH upon addition to a 0.1 M HCl solution (pH 1.2) was also evaluated. FIG. 2A presents pH values determined using an MP-103 pH-meter (MRC, Israel) equipped with ELC-10-00 electrode (MRC, Israel) and FIG. 2B presents pH values determined using an MP-103 pH-meter (MRC, Israel) equipped with a thin electrode HI1083 (HANNA instruments Inc.).
# [2] = compared with endogenous GLP-2; cited from earlier work
# [3] = teduglutide without the formulation; cited from earlier work
# [4] = Oral teduglutide/SNAC/SSG mini-tablets in rats, plasma teduglutide by ELISA; format: in vivo, Sprague-Dawley rats; settings: oral mini-tablets: 0.7 mg teduglutide (2.34 mg/Kg), 15 mg SNAC, 5.33 mg SSG, n=7
# Description: In an exemplary in vivo rat model, the effect of SNAC, as an exemplary absorption enhancer, and SSG, as an exemplary alkaline polymer, on the oral bioavailability of teduglutide was tested.
# A formulation was prepared with 0.7 mg teduglutide (2.34 mg/Kg), 15 mg SNAC, 0.2 mg stearate and 5.33 mg SSG. All substances were in a dry powder form and mixed geometrically. Afterwards, mini-tablets were prepared from the mixes using a 2 mm punch and die set at 1 ton/cm^2.
# The study was conducted in 7 male Sprague-Dawley (SD) rats weighing about 299 grams (290-320 grams). Animals were deprived of food 12-15 hours prior to administration. Water supply was removed one hour before administration and returned one hour post-administration. The mini-tablets were administered by a flexible intragastric gavage with a tip adapted for solid dosage forms administration, without the aid of water. Blood samples were thereafter collected at pre-determined time points, the plasma was separated, and the plasma level of teduglutide was quantified by an ELISA kit for the detection of endogenous GLP-2 in plasma (Abcam, Cat. No. ab222863) according to manufacturer's method Version 7, upon required modifications.
# [5] = cited from earlier work
compound,measurement,setting,value
"O=C(O)CCCCCCCNC(=O)c1ccccc1O [SNAC, sodium 8-N-(2-hydroxybenzoyl)aminocaprylate]",pH 5 minutes after dissolution,[1]; 10 mg/ml SNAC added to HCl solution (pH 1.2),about 1.5
same,pH 5 minutes after dissolution,[1]; 20 mg/ml SNAC added to HCl solution (pH 1.2),6.5
same,pH 5 minutes after dissolution,[1]; 100 mg/ml SNAC added to HCl solution (pH 1.2),about 7.5
CC[C@H](C)[C@H](NC(=O)[C@H](Cc1ccccc1)NC(=O)[C@H](CC(=O)O)NC(=O)[C@H](CCCNC(=N)N)NC(=O)[C@H](C)NC(=O)[C@H](C)NC(=O)[C@H](CC(C)C)NC(=O)[C@H](CC(N)=O)NC(=O)[C@H](CC(=O)O)NC(=O)[C@H](CC(C)C)NC(=O)[C@@H](NC(=O)[C@@H](NC(=O)[C@H](CC(N)=O)NC(=O)[C@H](CCSC)NC(=O)[C@H](CCC(=O)O)NC(=O)[C@H](CC(=O)O)NC(=O)[C@H](CO)NC(=O)[C@H](Cc1ccccc1)NC(=O)[C@H](CO)NC(=O)CNC(=O)[C@H](CC(=O)O)NC(=O)CNC(=O)[C@@H](N)Cc1c[nH]cn1)[C@@H](C)O)[C@@H](C)CC)C(=O)N[C@@H](CC(N)=O)C(=O)N[C@@H](Cc1c[nH]c2ccccc12)C(=O)N[C@@H](CC(C)C)C(=O)N[C@H](C(=O)N[C@@H](CCC(N)=O)C(=O)N[C@H](C(=O)N[C@@H](CCCCN)C(=O)N[C@H](C(=O)N[C@H](C(=O)N[C@@H](CC(=O)O)C(=O)O)[C@@H](C)O)[C@@H](C)CC)[C@@H](C)O)[C@@H](C)CC [teduglutide],stability to metabolic degradation,[2],significantly higher stability to metabolic degradation than the endogenous glucagon like peptide 2 (GLP-2)
same,oral (PO) bioavailability,[3],negligible
same,teduglutide plasma concentrations as a function of time,[4],enable oral delivery of teduglutide
same,half-life in humans,[5]; humans,about two hours
"GLP-2: Human glucagon-like peptide-2, a 33-amino acid polypeptide produced by intestinal endocrine L cells",half-life in humans,"[5]; human, in vivo",about 7 minutes
